# Assay results as given in patent US20080048155A1, “Filter and Cyanine Compound” (priority 2004, published 2008).
# Assay: Decomposition temperature by thermogravimetric-differential thermal analysis (TG-DTA)
# Assay type: physicochemical
# Settings: temperature at which weight loss initiated
# Experimental: Into 25 parts of acetic acid, 14.9 parts of 4,5-benzo-1-(2-methoxyethyl)-3,3-dimethyl-2-methyleneindoline and 4.5 parts of 2-chloro-1-formyl-3-hydroxymethylenecyclohexene were charged and the reaction mixture was heated up to 60° C. 5.1 parts of acetic anhydride was added dropwise thereto at 50° C. to 60° C. over 1 hour, and then stirred at 50° C. to 60° C. for further 2 hours to complete the condensation reaction. The reaction liquid was cooled to room temperature, and then filtered under aspiration to remove insoluble impurity. Subsequently, a solution of 8.8 parts of potassium(bis-trifluoromethanesulfonyl)imide in 40 parts of water was added dropwise to the reaction liquid. The precipitated crystal was filtered under aspiration, recrystallized from 70 parts of N,N-dimethylformamide, washed with 5 parts of methanol, then with water, and dried, to obtain 19.1 parts of the aforementioned Compound 31. Spectroscopic characteristics and decomposition temperature of the resultant Compound 31 were as follows. In this connection, decomposition temperature was shown by a value of the temperature at which weight loss initiated in a thermogravimetric-differential thermal analysis (TG-DTA).
row,Decomposition temperature,SMILES
1,242.9 °C,COCCN1/C(=C/C=C2\CCCC(/C=C/C3=[N+](CCOC)c4ccc5ccccc5c4C3(C)C)=C2Cl)C(C)(C)c2c1ccc1ccccc21 [Compound 31]
2,213.0 °C,COCCN1/C(=C/C=C2\CCC(/C=C/C3=[N+](CCOC)c4ccc5ccccc5c4C3(C)C)=C2Cl)C(C)(C)c2c1ccc1ccccc21 [Compound 46]
3,186.0 °C,CCCCOCCN1/C(=C/C=C2\CCC(/C=C/C3=[N+](CCOCCCC)c4ccc5ccccc5c4C3(C)C)=C2Cl)C(C)(C)c2c1ccc1ccccc21 [Compound 47]
4,224.6 °C,COCCN1/C(=C/C=C2\CCCC(/C=C/C3=[N+](CCOC)c4ccccc4C3(C)C)=C2Cl)C(C)(C)c2ccccc21 [Compound A]

# Assay: Solubility to various solvents at room temperature
# Assay type: physicochemical
# Settings: % by mass
# Source text: Further, solubility to various types of solvents at room temperature was as follows.
# Further, solubility to various kinds of solvents at room temperature was as follows.
"Solubility, Cyclopentanone","Solubility, Dichloromethane","Solubility, Methyl ethyl ketone (MEK)","Solubility, N,N-dimethylformamide","Solubility, Cyclohexanone",SMILES
14.5%,19.2%,2.9%,24.6%,,COCCN1/C(=C/C=C2\CCCC(/C=C/C3=[N+](CCOC)c4ccc5ccccc5c4C3(C)C)=C2Cl)C(C)(C)c2c1ccc1ccccc21 [Compound 31]
3.1%,,0.2%,3.4%,0.8%,COCCN1/C(=C/C=C2\CCC(/C=C/C3=[N+](CCOC)c4ccc5ccccc5c4C3(C)C)=C2Cl)C(C)(C)c2c1ccc1ccccc21 [Compound 46]
0.9%,,1.6%,4.5%,2.6%,CCCCOCCN1/C(=C/C=C2\CCC(/C=C/C3=[N+](CCOCCCC)c4ccc5ccccc5c4C3(C)C)=C2Cl)C(C)(C)c2c1ccc1ccccc21 [Compound 47]

# Assay: Wet heat resistance stability test of filter (85° C., 85% RH, 3 days)
# Assay type: physicochemical
# Settings: absorbance after/before ×100; 85° C. and 85% RH, 3 days
# Experimental: (§1) In this connection, absorbance (OD value) was measured using a spectrophotometer UV-3150 made by Shimadzu Corp. When measurement was carried out using a solvent, the same solvent was measured as a blank, and when measurement was carried out using a filter, a filter which had the same composition except that only the cyanine compound was not contained was produced and measured as a blank.
# The filter obtained in Example 12 (the filter using Compound 31) was left to stand in a high temperature constant humidity chamber at 85° C. and 85% RH for 3 days. Absorbance (OD value) of the filter was measured with a spectrophotometer before and after the test, and residual ratio of the coloring matter was determined from the change of the absorbance (OD value) at the maximum absorption wavelength.
# The filters obtained in Comparative Examples 1 to 6 were left to stand in a high temperature constant humidity chamber at 85° C. and 85% RH for 3 days. Then absorbances (OD values) of the filters were measured with a spectrophotometer before and after the test, and residual ratios of the coloring matters were determined from the changes of the absorbances (OD values) at each maximum absorption wavelength. The test using the filter obtained in Comparative Example 1 is termed as Comparative Example 7, the test using the filter obtained in Comparative Example 2 is termed as Comparative Example 8, the test using the filter obtained in Comparative Example 3 is termed as Comparative Example 9, the test using the filter obtained in Comparative Example 4 is termed as Comparative Example 10, the test using the filter obtained in Comparative Example 5 is termed as Comparative Example 11, and the test using the filter obtained in Comparative Example 6 is termed as Comparative Example 12.
row,SMILES,Residual Ratio
1,COCCN1/C(=C/C=C/C=C/C=C/C2=[N+](CCOC)c3ccccc3C2(C)C)C(C)(C)c2ccccc21 [Compound 30],97.3%
2,COCCN1/C(=C/C=C2\CCCC(/C=C/C3=[N+](CCOC)c4ccc5ccccc5c4C3(C)C)=C2Cl)C(C)(C)c2c1ccc1ccccc21 [Compound 31],90.9%

# The remaining lines, values ahead:
row,Residual Ratio,SMILES
1,99.9%,COCCN1/C(=C/C=C2\CCCC(/C=C/C3=[N+](CCOC)c4ccccc4C3(C)C)=C2Cl)C(C)(C)c2ccccc21 [Compound A]
2,93.6%,CN1/C(=C/C=C2\CCCC(/C=C/C3=[N+](C)c4ccc5ccccc5c4C3(C)C)=C2Cl)C(C)(C)c2c1ccc1ccccc21 [Compound B]
3,89.7%,CN1/C(=C/C=C/C=C/C=C/C2=[N+](C)c3ccc4ccccc4c3C2(C)C)C(C)(C)c2c1ccc1ccccc21 [Compound C]

# Same assay, conditions: acryl resin filter, 85° C. and 85% RH for 3 days
row,SMILES,Absorbance (OD value) After 3 days
1,COCCN1/C(=C/C=C/C=C/C=C/C2=[N+](CCOC)c3ccccc3C2(C)C)C(C)(C)c2ccccc21 [Compound 30],0.80
2,COCCN1/C(=C/C=C2\CCCC(/C=C/C3=[N+](CCOC)c4ccc5ccccc5c4C3(C)C)=C2Cl)C(C)(C)c2c1ccc1ccccc21 [Compound 31],0.59

# Further lines, results first:
row,Absorbance (OD value) After 3 days,SMILES
1,0.82,COCCN1/C(=C/C=C2\CCCC(/C=C/C3=[N+](CCOC)c4ccccc4C3(C)C)=C2Cl)C(C)(C)c2ccccc21 [Compound A]
2,0.63,CN1/C(=C/C=C2\CCCC(/C=C/C3=[N+](C)c4ccc5ccccc5c4C3(C)C)=C2Cl)C(C)(C)c2c1ccc1ccccc21 [Compound B]
3,0.67,CN1/C(=C/C=C/C=C/C=C/C2=[N+](C)c3ccc4ccccc4c3C2(C)C)C(C)(C)c2c1ccc1ccccc21 [Compound C]

# Same assay, conditions: acryl resin filter, before 85° C./85% RH test
row,SMILES,Absorbance (OD value) Initial
1,COCCN1/C(=C/C=C/C=C/C=C/C2=[N+](CCOC)c3ccccc3C2(C)C)C(C)(C)c2ccccc21 [Compound 30],0.83
2,COCCN1/C(=C/C=C2\CCCC(/C=C/C3=[N+](CCOC)c4ccc5ccccc5c4C3(C)C)=C2Cl)C(C)(C)c2c1ccc1ccccc21 [Compound 31],0.65

# Results, then the compound that gave them:
row,Absorbance (OD value) Initial,SMILES
1,0.83,COCCN1/C(=C/C=C2\CCCC(/C=C/C3=[N+](CCOC)c4ccccc4C3(C)C)=C2Cl)C(C)(C)c2ccccc21 [Compound A]
2,0.67,CN1/C(=C/C=C2\CCCC(/C=C/C3=[N+](C)c4ccc5ccccc5c4C3(C)C)=C2Cl)C(C)(C)c2c1ccc1ccccc21 [Compound B]
3,0.75,CN1/C(=C/C=C/C=C/C=C/C2=[N+](C)c3ccc4ccccc4c3C2(C)C)C(C)(C)c2c1ccc1ccccc21 [Compound C]

# Assay: Heat resistance stability test of filter (oven 80° C., 7 days)
# Assay type: physicochemical
# Settings: (Absorbance after the test/Absorbance before the test)×100; 80° C., 7 days
# Experimental: as §1
# In 18.8 parts of MEK, 0.4 parts of Compound 31 obtained in the above Example 5 was dissolved. To this solution, 80 parts of a resin solution prepared by dissolving 25 parts of an acryl-based resin (DIANAL (RTM) BR-80, made by Mitsubishi Rayon Co., Ltd.) in 75 parts of MEK was mixed to obtain a solution for coating. This solution was coated on a polyester film so that thickness becomes 2 to 4 μm, dried at 80° C. to obtain an optical filter of the present invention. This filter was used as a filter for absorbing near infrared rays.
# The resultant filter for absorbing near infrared rays was left to stand in an oven at 80° C. for 7 days. Then absorbance (OD value) of the filter was measured with a spectrophotometer before and after the test, and residual ratio of the coloring matter was determined from the change of the absorbance (OD value) at the maximum absorption wavelength. Residual ratio=(Absorbance after the test/Absorbance before the test)×100
row,SMILES,Residual Ratio
1,COCCN1/C(=C/C=C/C=C/C=C/C2=[N+](CCOC)c3ccccc3C2(C)C)C(C)(C)c2ccccc21 [Compound 30],89.7%
2,COCCN1/C(=C/C=C2\CCCC(/C=C/C3=[N+](CCOC)c4ccc5ccccc5c4C3(C)C)=C2Cl)C(C)(C)c2c1ccc1ccccc21 [Compound 31],80.9%

# Further lines, results first:
row,Residual Ratio,SMILES
1,87.2%,COCCN1/C(=C/C=C2\CCCC(/C=C/C3=[N+](CCOC)c4ccccc4C3(C)C)=C2Cl)C(C)(C)c2ccccc21 [Compound A]
2,85.6%,CN1/C(=C/C=C2\CCCC(/C=C/C3=[N+](C)c4ccc5ccccc5c4C3(C)C)=C2Cl)C(C)(C)c2c1ccc1ccccc21 [Compound B]
3,80.9%,CN1/C(=C/C=C/C=C/C=C/C2=[N+](C)c3ccc4ccccc4c3C2(C)C)C(C)(C)c2c1ccc1ccccc21 [Compound C]

# Same assay, conditions: acryl resin filter on polyester film, at maximum absorption wavelength, before 80° C. test
row,SMILES,Absorbance (OD value) Initial
1,COCCN1/C(=C/C=C/C=C/C=C/C2=[N+](CCOC)c3ccccc3C2(C)C)C(C)(C)c2ccccc21 [Compound 30],0.83
2,COCCN1/C(=C/C=C2\CCCC(/C=C/C3=[N+](CCOC)c4ccc5ccccc5c4C3(C)C)=C2Cl)C(C)(C)c2c1ccc1ccccc21 [Compound 31],0.65

# Second part, the compound after the results:
row,Absorbance (OD value) Initial,SMILES
1,0.83,COCCN1/C(=C/C=C2\CCCC(/C=C/C3=[N+](CCOC)c4ccccc4C3(C)C)=C2Cl)C(C)(C)c2ccccc21 [Compound A]
2,0.67,CN1/C(=C/C=C2\CCCC(/C=C/C3=[N+](C)c4ccc5ccccc5c4C3(C)C)=C2Cl)C(C)(C)c2c1ccc1ccccc21 [Compound B]
3,0.75,CN1/C(=C/C=C/C=C/C=C/C2=[N+](C)c3ccc4ccccc4c3C2(C)C)C(C)(C)c2c1ccc1ccccc21 [Compound C]

# Same assay, conditions: acryl resin filter, oven at 80° C. for 7 days
row,SMILES,Absorbance (OD value) After 7 days
1,COCCN1/C(=C/C=C/C=C/C=C/C2=[N+](CCOC)c3ccccc3C2(C)C)C(C)(C)c2ccccc21 [Compound 30],0.74
2,COCCN1/C(=C/C=C2\CCCC(/C=C/C3=[N+](CCOC)c4ccc5ccccc5c4C3(C)C)=C2Cl)C(C)(C)c2c1ccc1ccccc21 [Compound 31],0.52

# Now from value to compound:
row,Absorbance (OD value) After 7 days,SMILES
1,0.72,COCCN1/C(=C/C=C2\CCCC(/C=C/C3=[N+](CCOC)c4ccccc4C3(C)C)=C2Cl)C(C)(C)c2ccccc21 [Compound A]
2,0.57,CN1/C(=C/C=C2\CCCC(/C=C/C3=[N+](C)c4ccc5ccccc5c4C3(C)C)=C2Cl)C(C)(C)c2c1ccc1ccccc21 [Compound B]
3,0.61,CN1/C(=C/C=C/C=C/C=C/C2=[N+](C)c3ccc4ccccc4c3C2(C)C)C(C)(C)c2c1ccc1ccccc21 [Compound C]
